Marks after values point to notes of the source that are not given here.
Tested on: IPF patients
Assay: Phase II clinical trial in IPF patients: Treatment Emergent Adverse Events (safety/tolerability), up to 13 weeks
Settings: 18 mg b.i.d.
[1] = AF-group (antifibrotic background)
[2] = AF-group (antifibrotic background), listed as Compound of Formula III
[3] = AF-group (antifibrotic background), listed as active agent
[4] = AF-group, nintedanib background medication sub-group
[5] = AF-group, nintedanib background
[6] = AF-group, nintedanib background, listed as Compound of Formula III
[7] = AF-group, nintedanib background, listed as active agent
[8] = AF-group, nintedanib background, listed as compound of formula III
[9] = AF-group, nintedanib background, males
[10] = AF-group, pirfenidone background medication sub-group
[11] = AF-group, pirfenidone background

Q: How did the “SAE: Condition aggravated, patients n” value [1] turn out when `[O-][S@+]1CCc2nc(N3CCC(c4ncc(Cl)cn4)CC3)nc(NC3(CO)CCC3)c21` [Comp. of form. III] was run?
A: Its value is 2.

Q: And the “SAE: General disorders and administration side conditions, bracketed fatal event [ ]*, patients %” value [1]?
A: Its value is “(2.1)]* %”.

Q: And the “SAE: General disorders and administration side conditions, bracketed fatal event [ ]*, patients n” value [1]?
A: The value was “[1”.

Q: What about the “SAE: General disorders and administration side conditions, patients %” value [1] of the same molecule?
A: The value was “(4.1) %”.

Q: What about the “SAE: General disorders and administration side conditions, patients n” value [1] of the same molecule?
A: Its value is 2.

Q: And the “SAE: Nervous system disorders, patients %” value [1]?
A: Its value is “(2.0) %”.

Q: And the “SAE: Nervous system disorders, patients n” value [1]?
A: The value was 1.

Q: What about the “SAE: Peripheral nerve paresis, patients %” value [1] of the same molecule?
A: Its value is “(2.0) %”.

Q: And the “SAE: Peripheral nerve paresis, patients n” value [1]?
A: The value was 1.

Q: What about the “SAE: Vascular disorders, patients %” value [1] of the same molecule?
A: Its value is “(2.0) %”.

Q: And the “SAE: Vascular disorders, patients n” value [1]?
A: The value was 1.

Q: And the “SAE: Vasculitis (fatal event), patients %” value [1]?
A: Its value is “(2.0)* %”.

Q: What about the “SAE: Vasculitis (fatal event), patients n” value [1] of the same molecule?
A: Its value is 1.

Q: And the “Serious AEs (patients with ≥1 SAE), patients %” value [1]?
A: The value was “(6.1) %”.

Q: What about the “Serious AEs (patients with ≥1 SAE), patients n” value [1] of the same molecule?
A: Its value is 3.

Q: And the “Severe AEs, patients %” value [1]?
A: The value was “(4.1) %”.

Q: What about the “Severe AEs, patients n” value [1] of the same molecule?
A: The value was 2.

Q: What about the “AE: Diarrhoea, patients %” value (AF-group (antifibrotic background), listed as Comp. of Form. III) of the same molecule?
A: Its value is 30.6%.

Q: What about the “AE: Diarrhoea, patients %” value [2] of the same molecule?
A: Its value is “(30.6) %”.

Q: And the “AE: Gastrointestinal disorders, patients %” value [2]?
A: The value was “(36.7) %”.

Q: What about the “Any AE, patients %” value [2] of the same molecule?
A: The value was “(73.5) %”.

Q: And the “AE: Diarrhoea, patients %” value [3]?
A: The value was 30.6%.

Q: What about the “Any AE, patients %” value [3] of the same molecule?
A: The value was 73.5%.

Q: What about the “AE: Diarrhoea, patients %” value [4] of the same molecule?
A: Its value is 46.2%.

Q: What about the “AE: gastrointestinal disorder, patients %” value [4] of the same molecule?
A: The value was 46.2%.

Q: What about the “Dyspepsia leading to discontinuation of trial treatment, patients %” value [5] of the same molecule?
A: Its value is “(3.8) %”.

Q: And the “Dyspepsia leading to discontinuation of trial treatment, patients n” value [5]?
A: Its value is 1.

Q: And the “Gastrointestinal disorders leading to discontinuation of trial treatment, patients n” value [5]?
A: The value was 4.

Q: What about the “Patients with AEs leading to discontinuation of the trial drug, %” value [5] of the same molecule?
A: Its value is 26.9%.

Q: And the “Patients with any AE, %” value [5]?
A: The value was 80.8%.

Q: What about the “Patients with investigator defined drug related AEs, %” value [5] of the same molecule?
A: Its value is 46.2%.

Q: And the “Patients with other significant AEs, %” value [5]?
A: The value was 26.9%.

Q: What about the “Patients with pre-specified AEs of special interest, %” value [5] of the same molecule?
A: The value was 0%.

Q: And the “Patients with serious AEs, %” value [5]?
A: Its value is 3.8%.

Q: What about the “Patients with severe AEs, %” value [5] of the same molecule?
A: The value was 3.8%.

Q: And the “Serious AEs: Congenital anomaly/birth defect, %” value [5]?
A: The value was 0%.

Q: What about the “Serious AEs: Immediately life threatening, %” value [5] of the same molecule?
A: Its value is 0%.

Q: And the “Serious AEs: Other comparable medical criteria, %” value [5]?
A: Its value is 0%.

Q: And the “Serious AEs: Persistent or significant disability, %” value [5]?
A: Its value is 0%.

Q: What about the “Serious AEs: Requires or prolongs hospitalization, %” value [5] of the same molecule?
A: Its value is 3.8%.

Q: And the “Serious AEs: Results in Death, %” value [5]?
A: The value was 0%.

Q: And the “Diarrhoea leading to discontinuation of trial treatment, patients %” value [6]?
A: The value was “(11.5) %”.

Q: What about the “Diarrhoea leading to discontinuation of trial treatment, patients n” value [6] of the same molecule?
A: Its value is 3.

Q: What about the “Gastrointestinal disorders leading to discontinuation of trial treatment, patients %” value (“Gastrointestinal disorders leading … patients %” for short) [6] of the same molecule?
A: The value was “(15.4) %”.

Q: And the “Diarrhoea leading to discontinuation of trial treatment, patients n” value [7]?
A: Its value is 3.

Q: What about the “Gastrointestinal disorders leading … patients %” value [7] of the same molecule?
A: Its value is 15.4%.

Q: What about the “Diarrhoea leading to discontinuation of trial treatment, patients %” value [8] of the same molecule?
A: The value was 11.5%.

Q: What about the “Gastrointestinal disorders leading … patients %” value [8] of the same molecule?
A: The value was 15.4%.

Q: What about the “Moderate cases of diarrhoea, %” value [9] of the same molecule?
A: Its value is 2.1%.

Q: What about the “Severe case of diarrhoea, %” value [9] of the same molecule?
A: Its value is 1.0%.

Q: What about the “AE: Diarrhoea, patients %” value [10] of the same molecule?
A: The value was 13.0%.

Q: What about the “AE: gastrointestinal disorder, patients %” value [10] of the same molecule?
A: Its value is 26.1%.

Q: And the “Patients with AEs leading to discontinuation of the trial drug, %” value [11]?
A: Its value is 13.0%.

Q: And the “Patients with any AE, %” value [11]?
A: The value was 65.2%.

Q: And the “Patients with investigator defined drug related AEs, %” value [11]?
A: Its value is 26.1%.

Q: And the “Patients with other significant AEs, %” value [11]?
A: The value was 4.3%.

Q: What about the “Patients with pre-specified AEs of special interest, %” value [11] of the same molecule?
A: The value was 4.3%.

Q: What about the “Patients with serious AEs, %” value [11] of the same molecule?
A: The value was 8.7%.

Q: What about the “Patients with severe AEs, %” value [11] of the same molecule?
A: Its value is 4.3%.

Q: What about the “Serious AEs: Congenital anomaly/birth defect, %” value [11] of the same molecule?
A: The value was 0%.

Q: What about the “Serious AEs: Immediately life threatening, %” value [11] of the same molecule?
A: Its value is 0%.

Q: And the “Serious AEs: Other comparable medical criteria, %” value [11]?
A: Its value is 0%.

Q: What about the “Serious AEs: Persistent or significant disability, %” value [11] of the same molecule?
A: The value was 0%.

Q: And the “Serious AEs: Requires or prolongs hospitalization, %” value [11]?
A: Its value is 8.7%.

Q: And the “Serious AEs: Results in Death, %” value [11]?
A: The value was 4.3%.

Q: What about the “Gastrointestinal disorders leading to discontinuation of trial treatment, patients (in words)” value (AF-group, pirfenidone background, listed as active agent) of the same molecule?
A: The value was “not a single patient”.

Q: What about the “Gastrointestinal disorders leading to discontinuation of trial treatment, patients (in words)” value (AF-group, pirfenidone background, listed as compound of formula III) of the same molecule?
A: The value was “no discontinuations of the trial treatment at all”.

Q: What about the “AE resulting in death, patients %” value (Non-AF+AF total) of the same molecule?
A: The value was “(2.1) %”.

Q: And the “AE resulting in death, patients n” value (Non-AF+AF total)?
A: The value was 2.

Q: What about the “AE: Abdominal pain, patients %” value (Non-AF+AF total) of the same molecule?
A: The value was “(2.1) %”.

Q: And the “AE: Abdominal pain, patients n” value (Non-AF+AF total)?
A: The value was 2.

Q: And the “AE: Arthralgia, patients %” value (Non-AF+AF total)?
A: The value was “(2.1) %”.

Q: What about the “AE: Arthralgia, patients n” value (Non-AF+AF total) of the same molecule?
A: The value was 2.

Q: What about the “AE: Asthenia, patients %” value (Non-AF+AF total) of the same molecule?
A: The value was “(4.1) %”.

Q: What about the “AE: Asthenia, patients n” value (Non-AF+AF total) of the same molecule?
A: Its value is 4.

Q: What about the “AE: Bronchitis, patients %” value (Non-AF+AF total) of the same molecule?
A: The value was “(2.1) %”.

Q: And the “AE: Bronchitis, patients n” value (Non-AF+AF total)?
A: Its value is 2.

Q: What about the “AE: Condition aggravated, patients %” value (Non-AF+AF total) of the same molecule?
A: The value was “(2.1) %”.

Q: And the “AE: Condition aggravated, patients n” value (Non-AF+AF total)?
A: The value was 2.

Q: What about the “AE: Constipation, patients %” value (Non-AF+AF total) of the same molecule?
A: Its value is “(2.1) %”.

Q: What about the “AE: Constipation, patients n” value (Non-AF+AF total) of the same molecule?
A: The value was 2.

Q: What about the “AE: Cough, patients %” value (Non-AF+AF total) of the same molecule?
A: The value was “(7.2) %”.

Q: And the “AE: Cough, patients n” value (Non-AF+AF total)?
A: The value was 7.

Q: What about the “AE: Decreased appetite, patients %” value (Non-AF+AF total) of the same molecule?
A: Its value is “(3.1) %”.

Q: And the “AE: Decreased appetite, patients n” value (Non-AF+AF total)?
A: Its value is 3.

Q: What about the “AE: Diarrhoea, patients %” value (Non-AF+AF total) of the same molecule?
A: Its value is “(23.7) %”.

Q: What about the “AE: Diarrhoea, patients n” value (Non-AF+AF total) of the same molecule?
A: The value was 23.

Q: What about the “AE: Dizziness, patients %” value (Non-AF+AF total) of the same molecule?
A: Its value is “(2.1) %”.

Q: And the “AE: Dizziness, patients n” value (Non-AF+AF total)?
A: Its value is 2.

Q: And the “AE: Dyspepsia, patients %” value (Non-AF+AF total)?
A: Its value is “(5.2) %”.

Q: And the “AE: Dyspepsia, patients n” value (Non-AF+AF total)?
A: Its value is 5.

Q: What about the “AE: Dyspnoea, patients %” value (Non-AF+AF total) of the same molecule?
A: Its value is “(3.1) %”.

Q: What about the “AE: Dyspnoea, patients n” value (Non-AF+AF total) of the same molecule?
A: Its value is 3.

Q: What about the “AE: Fatigue, patients %” value (Non-AF+AF total) of the same molecule?
A: Its value is “(3.1) %”.

Q: What about the “AE: Fatigue, patients n” value (Non-AF+AF total) of the same molecule?
A: Its value is 3.

Q: What about the “AE: Flatulence, patients %” value (Non-AF+AF total) of the same molecule?
A: The value was “(5.2) %”.

Q: And the “AE: Flatulence, patients n” value (Non-AF+AF total)?
A: The value was 5.

Q: And the “AE: Gastrointestinal disorders, patients %” value (Non-AF+AF total)?
A: The value was “(32.0) %”.

Q: What about the “AE: Gastrointestinal disorders, patients n” value (Non-AF+AF total) of the same molecule?
A: The value was 31.

Q: And the “AE: General disorders and administration site conditions, patients %” value (Non-AF+AF total)?
A: Its value is “(16.5) %”.

Q: And the “AE: General disorders and administration site conditions, patients n” value (Non-AF+AF total)?
A: Its value is 16.

Q: And the “AE: Headache, patients %” value (Non-AF+AF total)?
A: Its value is “(6.2) %”.

Q: What about the “AE: Headache, patients n” value (Non-AF+AF total) of the same molecule?
A: Its value is 6.

Q: What about the “AE: Infections and infestations, patients %” value (Non-AF+AF total) of the same molecule?
A: Its value is “(14.4) %”.

Q: What about the “AE: Infections and infestations, patients n” value (Non-AF+AF total) of the same molecule?
A: Its value is 14.

Q: What about the “AE: Investigations, patients %” value (Non-AF+AF total) of the same molecule?
A: Its value is “(15.5) %”.

Q: What about the “AE: Investigations, patients n” value (Non-AF+AF total) of the same molecule?
A: The value was 15.

Q: What about the “AE: Metabolism and nutrition disorders, patients %” value (Non-AF+AF total) of the same molecule?
A: Its value is “(4.1) %”.
